Laboratory results: ChEMBL document CHEMBL1155756, “Pacovatinins A-C, new labdane diterpenoids from the seeds of Renealmia exaltata” (J Nat Prod, 2001)
Values after ≈ are worked out from the molar mass of the structure shown.

Tests used:
L1210 = assay: Cytotoxicity against mouse L1210 cells; format: functional, cell-based
KB = assay: Cytotoxicity against human KB cells; format: functional, cell-based

| Compound | IC50 (L1210) [µg/mL] | IC50 (KB) [µg/mL] |
| --- | --- | --- |
| C=C1[C@@H](O)C[C@H]2C(C)(C)[C@@H](O)CC[C@]2(C)[C@H]1C/C=C1\CCOC1=O [PACOVATININ B] | > 10 | > 10 |
| C=C1[C@@H](O)C[C@H]2C(C)(C)C(=O)CC[C@]2(C)[C@H]1C/C=C1/CCOC1=O [PACOVATININ C] | 4.7 (≈ 14.1 µM) | 7.3 (≈ 22 µM) |
